According to patent publication US20220339233A1, “COMPOSITIONS AND METHODS FOR PREVENTING RECURRENCE OF CANCER” (YALE UNIVERSITY, priority 2019, published 2022):

Experiments:
mouse IDO = target: T1, mouse IDO (Mus musculus, UniProt P28776); test: IDO activity of IDO transfected HEK293 cells; format: cell-based; details: L-tryptophan 125 μM, 24 hr, kynurenine in medium
T1 construct: expressed in transfected cells; host or cells: HEK293
Experimental: HEK293 cells were transfected with mouse IDO expression plasmids and then seeded for culturing overnight. L-tryptophan 125 μM with or without YIV906, YIV906GU or its flavonoids were added to the wells for 24 hr. The concentration of kynurenine of culture medium was measured using colorimetric based assay. Results were normalized to protein concentration in each well.
2×10^6 HEK293 cells were transfected with mouse IDO (2 μg/10 cm plate) for 48 h. For one plate, 1 mL PBS was used to collect cells into a 2 ml tube. Cells were centrifuged at 3,500 rpm 1 min. Cells were then sonicated in ice cold PB buffer (1 mL, pH 6.5). Cell lysis was clarified by centrifuging at 12,000 rpm for 5 min at 4° C. 25 μL cell lysis solution was mixed with YIV906 or YIV906GU (25 μL) at desired concentrations. Reaction buffer containing 50 μL PB buffer (100 mM, pH 6.5), 10 μL methylene blue (2.5%), 100 μL catalase (20 mg/mL), 250 μL L-tryptophan (500 mM) and, for every 10 mL of total solution, 70 mg of vitamin C. The reaction buffer was then added to the cell lysis solution. The solution was allowed to react for 1.5 h at 37° C. Trichloroacetic acid 30% (25 μL) was added and incubated at 50° C. for 1 hr. […] Absorbance at 540 nm was measured using a UV-vis spectrometer to determine kynurenine concentration.

[1] = LC-MS detection of YIV-906 compounds of Hepa 1-6 tumor; set-up: species or system mice; details: mouse, in vivo; for detection in the tumor mass: po
Experimental: (§1) FIGS. 12A-12C show the effects of various YIV-906 formulations on M1/M2 mRNA expression. […] Raw cells were cultured in the presence of murine M-CSF (10 ng/mL) for 3 days, and then cultured in presence with IFNγ 10 ng/mL alone or with YIV-906GU/its components to induce polarization to M1-like macrophage for 24 h. The mRNA expression was determined by RT-qPCR following treatment at day 8. FIG. 12C illustrates the detection of YIV-906 compounds of Hepa 1-6 tumor following oral administration of YIV-906 with or without Anti-PD1 using LC-MS as described herein.
Each tumor sample were homogenized in 200 μL acetronitrile/methanol/water(2/2/1, v/v/v) and 1 mm glass beads (BioSpec Products, Bartlesville, Okla.) for 30 s at 3500 rpm twice. The homogenate was then centrifuged at 12000 rpm for 15 min at 4° C. The supernatant was dried down in a Speedvac. The residue of each tumor sample was re-dissolved in 100 μL of acetonitrile, and vortexed at 3000 rpm for 3 min. The solution was then centrifuged at 12000 rpm at 4° C. for 15 min, and 2 μL supernatant was injected into the UPLC-QTOF system for analysis. All sample analyses were performed on an ACQUITY ultra-performance liquid chromatography (UPLC) system coupled with a quadrupole-time of flight (Q-TOF) MS instrument (UPLC Xevo G2-XS QTOF MS, Waters Corp., Milford, Mass., USA) with an electrospray ionization (ESI) source. Separation was carried out on a Waters ACQUITY BEH C18 column (2.1 mm×100 mm id, 1.7 μm) with a guard column (Waters ACQUITY BEH C18 column (2.1 mm×5 mm id, 1.7 μm)).
The mobile phase consisted of acetonitrile (A) and water containing 0.1% formic acid (B) using a gradient elution of 5% A at 0-2 min, 5-10% A at 2-3 min, 10-17% A at 3-10 min, 17-30% A at 10-15 min, 30-40% A at 15-20 min, 40-80% A at 20-25 min, 80% A at 25-30 min, 80-5% A at 30-31 min, and 5% A at 31-35 min. The flow rate was 0.3 mL/min. Mass spectrometry was performed on a Water Xevo G2-XS QTOF. The scan range was from 50 to 1000 Da. For the negative electrospray mode, the capillary voltage and cone voltage were set at 2.5 kV and 60 V, respectively. […]

Raw cells = test: iNOS/Arg mRNA expression of macrophage with IFNγ (RT-qPCR); format: cell-based; details: in the presence of IFNγ 10 ng/mL; GU treated
Experimental: as §1
Total RNA was extracted with TRIzol reagent (Invitrogen, California, USA). The aqueous phase was collected and then one volume of ethanol was added, following the manufacturer's instructions. Before centrifuging, this slurry was added to a column (miRNeasy, Qiagen, Venlo, Limburg) for further extraction and simultaneous DNA digestion (RNase-Free DNAse set, Qiagen). cDNA was synthesized using random primers and reverse transcriptase MMLV (New England Biolabs, Ipswich, MA). qPCR assays were performed using iTaq™ SYBR® Green Supermix and the CFX96 Real-Time PCR Detection System (Bio-Rad Laboratories, Hercules, Calif.).

T1 sequence (P28776 whole entry): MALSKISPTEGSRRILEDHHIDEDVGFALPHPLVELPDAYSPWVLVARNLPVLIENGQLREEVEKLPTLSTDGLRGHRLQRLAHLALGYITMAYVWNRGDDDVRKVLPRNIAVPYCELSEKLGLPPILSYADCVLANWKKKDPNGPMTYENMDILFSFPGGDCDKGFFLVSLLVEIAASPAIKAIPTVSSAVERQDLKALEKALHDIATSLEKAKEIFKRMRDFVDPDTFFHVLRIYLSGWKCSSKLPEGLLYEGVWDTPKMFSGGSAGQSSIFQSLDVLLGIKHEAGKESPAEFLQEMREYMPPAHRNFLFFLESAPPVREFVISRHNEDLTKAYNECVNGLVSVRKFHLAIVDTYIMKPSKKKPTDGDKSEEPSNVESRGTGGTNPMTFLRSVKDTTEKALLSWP

Structure (SMILES)	IDO enzyme activity in cell cultures (mouse IDO)	presence in tumors of the YIV-906 plus anti-PD1 group [1]	detection in the tumor mass [1]	IFNγ action on increasing iNOS/Arg ratio (Raw cells)
O=c1cc(-c2ccccc2)oc2cc(O)c(O)c(O)c12 [baicalein]	most potent	did not have	detected	potentiate
COc1c(O)cc2oc(-c3ccccc3)cc(=O)c2c1O [oroxylin A]	–	–	detected	potentiate
